The values below come from publication PMC2360155, “Novel retinoic acid metabolism blocking agents have potent inhibitory activities on human breast cancer cells and tumour growth” (British Journal of Cancer, 2007).

As usually defined, the IC50 is the concentration at which inhibition is half-maximal. Broadly, the EC50 is the midpoint of the concentration-response curve. Low readings indicate a more potent agent, high ones a less potent agent.

One test has as its system MCF-7 cells. Also on record: method as in Patel et al. (2004). The following applies: inhibition of cell proliferation by 50%; ref Patel et al. (2004); read-out: Cellular IC50, MCF-7; cited from earlier work.
A further test concerns T47D cells. Also on record: method as in Patel et al. (2004). The following applies: inhibition of cell proliferation by 50%; ref Patel et al. (2004); read-out: Cellular IC50, T47D; cited from earlier work.
A further test addresses T1, RARβ (Mus musculus, UniProt P22605).
T1 construct: expressed in transfected cells; host or cells: CV-1 cells
T1 sequence (P22605 1-448 isoform P22605-3): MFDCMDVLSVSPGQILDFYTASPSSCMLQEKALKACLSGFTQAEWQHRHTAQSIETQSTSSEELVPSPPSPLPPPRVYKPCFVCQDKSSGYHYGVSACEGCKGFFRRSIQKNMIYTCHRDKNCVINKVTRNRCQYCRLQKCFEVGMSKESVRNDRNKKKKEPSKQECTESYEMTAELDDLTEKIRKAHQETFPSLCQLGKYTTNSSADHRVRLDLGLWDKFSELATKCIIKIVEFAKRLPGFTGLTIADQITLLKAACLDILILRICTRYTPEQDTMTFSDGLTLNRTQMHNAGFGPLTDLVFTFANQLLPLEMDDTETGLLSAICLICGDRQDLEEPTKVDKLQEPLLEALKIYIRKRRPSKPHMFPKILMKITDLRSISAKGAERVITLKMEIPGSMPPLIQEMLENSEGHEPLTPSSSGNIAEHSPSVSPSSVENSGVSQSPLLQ
As to the kind of experiment: Retinoid receptor competition binding assay, RARβ. The following applies: competition with 1.0 nM [3H]-all-trans-RA.

The next test deals with T2, RARγ (Mus musculus, UniProt P18911).
T2 construct: expressed in transfected cells; host or cells: CV-1 cells
T2 sequence (P18911 1-458): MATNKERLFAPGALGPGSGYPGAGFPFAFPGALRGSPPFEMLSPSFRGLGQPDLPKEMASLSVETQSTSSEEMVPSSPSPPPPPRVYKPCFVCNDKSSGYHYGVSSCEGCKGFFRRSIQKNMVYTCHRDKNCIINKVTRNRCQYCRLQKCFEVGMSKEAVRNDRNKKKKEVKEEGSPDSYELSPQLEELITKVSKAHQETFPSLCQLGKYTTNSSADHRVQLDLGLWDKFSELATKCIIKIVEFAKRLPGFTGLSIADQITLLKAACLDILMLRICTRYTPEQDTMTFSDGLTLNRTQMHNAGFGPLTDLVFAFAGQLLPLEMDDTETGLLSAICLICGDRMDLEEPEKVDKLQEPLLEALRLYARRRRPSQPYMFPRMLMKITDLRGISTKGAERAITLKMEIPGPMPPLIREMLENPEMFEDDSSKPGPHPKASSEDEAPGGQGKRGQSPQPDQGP
In words: Retinoid receptor competition binding assay, RARγ. The following applies: competition with 1.0 nM [3H]-all-trans-RA.

The target of a further test is T3, RXRα (Homo sapiens, UniProt P19793).
T3 construct: The full-length cDNA clones for RARα, RARβ, RARγ and RXRα were cloned into the prokaryotic expression vector pET29; S-Tag; made in house; host or cells: prokaryotic host (pET29 vector)
T3 sequence (P19793 1-462): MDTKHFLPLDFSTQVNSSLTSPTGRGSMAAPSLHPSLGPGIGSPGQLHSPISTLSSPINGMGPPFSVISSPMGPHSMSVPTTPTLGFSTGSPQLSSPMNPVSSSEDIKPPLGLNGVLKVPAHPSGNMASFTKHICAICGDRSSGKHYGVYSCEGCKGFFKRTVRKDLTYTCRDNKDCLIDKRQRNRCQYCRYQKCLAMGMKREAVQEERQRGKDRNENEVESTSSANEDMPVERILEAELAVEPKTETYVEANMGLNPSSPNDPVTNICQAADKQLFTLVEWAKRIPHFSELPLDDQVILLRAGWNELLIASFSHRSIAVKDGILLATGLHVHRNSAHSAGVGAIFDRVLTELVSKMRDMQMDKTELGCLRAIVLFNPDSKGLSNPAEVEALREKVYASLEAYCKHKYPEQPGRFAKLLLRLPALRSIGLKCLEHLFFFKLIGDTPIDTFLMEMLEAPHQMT
In words: Retinoid receptor competition binding assay, RXRα. The following applies: competition with 1.0 nM [3H]-9-cis-RA.

In test [1] the target is T4, RARα (Mus musculus, UniProt P11416).
T4 sequence (P11416 1-462): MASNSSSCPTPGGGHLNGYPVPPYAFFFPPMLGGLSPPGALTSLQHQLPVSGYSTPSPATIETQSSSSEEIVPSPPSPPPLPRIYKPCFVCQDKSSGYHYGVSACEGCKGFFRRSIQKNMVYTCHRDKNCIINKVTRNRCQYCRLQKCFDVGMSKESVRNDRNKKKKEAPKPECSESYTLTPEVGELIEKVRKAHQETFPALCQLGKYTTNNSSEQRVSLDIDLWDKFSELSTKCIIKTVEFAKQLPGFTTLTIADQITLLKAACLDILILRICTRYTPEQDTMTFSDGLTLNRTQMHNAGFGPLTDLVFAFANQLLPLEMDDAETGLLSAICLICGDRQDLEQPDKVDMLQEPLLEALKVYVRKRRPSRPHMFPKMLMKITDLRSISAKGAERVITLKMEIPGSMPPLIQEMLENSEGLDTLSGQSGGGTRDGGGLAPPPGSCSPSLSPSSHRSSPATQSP
As to the kind of experiment: Transactivation assay (RARE-CAT reporter, CV-1 cells), RARα. Format: cell-based. As to conditions: 50% of maximal activity obtained with 10^−6 M all-trans-RA. On the procedure: Briefly, CV-1 cells were cotransfected with 4 μg RAR subtype (RARα, RARβ or RARγ) expression vector construct in pSG5, 4 μg RARE-CAT reporter DNA and 1 μg pCMV-β-gal DNA. Twenty-four hours following transfection, the cells were treated with various concentrations of each RAMBA ranging from 10^−11–10^−5 M along with an ethanol carrier control. Additional cells were treated with 10^−6 M all-trans-RA for normalisation. Twenty-four hours later, the cells were harvested and CAT and β-gal activities were assayed.

Test [2] addresses T4, RARα. As to the kind of experiment: Retinoid receptor competition binding assay, RARα. Also on record: The full-length cDNA clones for RARα, RARβ, RARγ and RXRα were cloned into the prokaryotic expression vector pET29; S-Tag; made in house; host or cells: prokaryotic host (pET29 vector). The following applies: competition with 1.0 nM [3H]-all-trans-RA.

SMILES strings stand for the structures.

Consider `CC1=C(/C=C/C(C)=C/C=C/C(C)=C/C(=O)O)C(C)(C)CCC1` [ATRA, all-trans-retinoic acid, reference compound], for which the concentration for half-maximal inhibition (IC50) in the test on MCF-7 cells is 585 nM; with T47D cells it was 8 nM.
Consider `CC1=C(/C=C/C(C)=C/C=C/C(C)=C/C(=O)O)C(C)(C)CCC1n1ccnc1` (stereo not shown) [VN/14-1], for which the 50% inhibitory concentration (IC50) was 200 nM at RARβ; 16 nM at RARγ; greater than 500 nM at RXRα; 494 nM in the test with MCF-7 cells; 3 nM in the test on T47D cells; 16 nM at RARα [2]. In addition, at RARα [1], the EC50 was 300 nM.
Consider `CC1=C(/C=C/C(C)=C/C=C/C(C)=C/C(=O)Nc2ccc(O)cc2)C(C)(C)CCC1n1ccnc1` (stereo not shown) [VN/66-1], for which the 50% inhibitory concentration (IC50) on RARβ is greater than 1000 nM; at RARγ it was greater than 1000 nM; at RXRα, greater than 500 nM; in the test on MCF-7 cells, 590 nM; in the test on T47D cells, 570 nM; on RARα [2] it was greater than 1000 nM. The compound also yielded a concentration giving a half-maximal response (EC50) at RARα [1] greater than 10000 nM.
Regarding `CC1=C(/C=C/C(C)=C/C=C/C(C)=C\C(=O)Nc2ccc(O)cc2)C(C)(C)CCC1n1ccnc1` (stereo not shown) [VN/69-1], the half-inhibitory concentration (IC50) on RARβ is greater than 1000 nM; on RARγ, greater than 1000 nM; on RXRα it was greater than 500 nM; in the test on MCF-7 cells, 609 nM; at RARα [2] it was greater than 1000 nM. This compound also registered an EC50 at RARα [1] greater than 10000 nM.
